The source of these data is ChEMBL document CHEMBL6134901 (J Med Chem, 2025).

One data set has as its system Enterococcus faecalis. Nature of the data set: Antibacterial activity against Enterococcus faecalis ATCC 29212. Type of data set: functional.
In the next data set the test system is Acinetobacter baumannii. As to the kind of experiment: Antibacterial activity against Acinetobacter baumannii ATCC 17961. The format is functional.
Data set [1] relates to Clostridioides difficile. Nature of the data set: Antibacterial activity against Clostridium difficile RMA23828. The format is functional.
The test system of a further data set is Klebsiella aerogenes. As to the kind of experiment: Antibacterial activity against Enterobacter aerogenes ATCC 35029. Type of data set: functional.
A further data set relates to Fusobacterium nucleatum. Nature of the data set: Antibacterial activity against methicillin/oxacillin/tetracycline-resistant mecA-positive Fusobacterium nucleatum HM-992. Type of data set: functional.
The subject of data set [2] is Staphylococcus aureus. Nature of the data set: Antibacterial activity against vancomycin-resistant Staphylococcus aureus VRS1 clinical isolate. The format is functional.
A further data set relates to Bacteroides fragilis. Nature of the data set: Antibacterial activity against Bacteroides fragilis HM-709. Type of data set: functional.
In another data set the test system is Pseudomonas aeruginosa. Nature of the data set: Antibacterial activity against Pseudomonas aeruginosa ATCC 27853. Type of data set: functional.
In another data set the test system is Enterococcus faecium. Nature of the data set: Antibacterial activity against vancomycin-resistant Enterococcus faecium 106 clinical isolate. Type of data set: functional.
A further data set has as its system Klebsiella pneumoniae. Nature of the data set: Antibacterial activity against Klebsiella pneumoniae ATCC 700603. Type of data set: functional.
The subject of the next data set is Escherichia coli. Nature of the data set: Antibacterial activity against Escherichia coli ATCC 25922. Type of data set: functional.
Data set [3] relates to Limosilactobacillus reuteri. Nature of the data set: Antibacterial activity against vancomycin-susceptible Lactobacillus reuteri HM-102 clinical isolate. The format is functional.
The subject of a further data set is Bifidobacterium longum. As to the kind of experiment: Antibacterial activity against Bifidobacterium longum HM-846. Type of data set: functional.
The subject of data set [4] is Clostridioides difficile. As to the kind of experiment: Antibacterial activity against metronidazole-resistant Clostridium difficile […] clinical isolate. The format is functional.
For another data set, the system named is Veillonella. Nature of the data set: Antibacterial activity against Veillonella sp. HM-49. Type of data set: functional.
The nature of data set [5]: Selectivity index, ratio of LD50 for cytotoxicity against human HepG2 cells to IC50 for antibacterial activity against Clostridium difficile ATTC43255 assessed as spore germination inhibition. The conditions noted are these: read-out: Ratio LD50/IC50. Type of data set: toxicity, cell-based.
A short description of data set [6]: Cytotoxicity against human HepG2 cells incubated for 24 hrs by XTT assay. The conditions noted are these: read-out: LD50. The format is toxicity, cell-based.
In data set [7] the test system is Clostridioides difficile. As to the kind of experiment: Antibacterial activity against Clostridium difficile ATTC43255 assessed as spore germination inhibition incubated for 60 mins by spectrometry. Type of data set: functional, organism-based. The conditions noted are these: for IC50: ATTC43255, 1 h.
The subject of data set [8] is Clostridioides difficile. As to the kind of experiment: Antibacterial activity against Clostridium difficile ATTC43255 assessed as spore germination inhibition at 45 uM incubated for 60 mins by spectrometry relative to control. The format is functional. The conditions noted are these: ATTC43255, 1 h.
Data set [9] concerns Clostridioides difficile. Nature of the data set: Antibacterial activity against Clostridium difficile ATTC43255 incubated for 24 to 48 hrs anaerobically by colony counting method. The format is functional. The conditions noted are these: time 24-48 hrs.
Data set [10] relates to Bacteria. Nature of the data set: Binding affinity to bacterial GerS assessed as dissociation constant by MST assay.
Data set [11] concerns Bacteria. As to the kind of experiment: Binding affinity to bacterial prepro-SleC assessed as dissociation constant by MST assay.
In data set [12] the test system is Staphylococcus haemolyticus. Nature of the data set: Antibacterial activity against Staphylococcus haemolyticus ATCC 29970. The format is functional.
The next data set has as its system Bacillus subtilis. Nature of the data set: Inhibition of Bacillus subtilis sacculi-derived SleC.
A short description of data set [13]: Drug concentration in brain of Golden Syrian hamster at 5 mg/kg, po bid measured after 8 hrs. Type of data set: ADME, organism-based, Mesocricetus auratus. The conditions noted are these: read-out: Ct.
Data set [14] deals with Clostridioides difficile. Nature of the data set: Antibacterial activity against Clostridium difficile BAA1870 assessed as spore germination inhibition. Type of data set: functional, organism-based.
Data set [15] in a line: Binding affinity to bacterial CspB assessed as dissociation constant by MST assay. Also on record: species or system Bacteria.
Data set [16] relates to Bacteria. Nature of the data set: Binding affinity to bacterial CspC assessed as dissociation constant by MST assay.
Data set [17] deals with Bacteria. As to the kind of experiment: Binding affinity to bacterial CspA assessed as dissociation constant by MST assay.
Data set [18] deals with Staphylococcus aureus. Nature of the data set: Inhibition of Staphylococcus aureus COL PBP1 at 5 ug/ml measured for 24 hrs by absorbance based assay. The conditions noted are these: dose 5.0 µg/ml.
Data set [19] in a line: Binding affinity to bacterial pro-SleC assessed as dissociation constant by MST assay. Also noted: species or system Bacteria.
Data set [20] deals with Clostridioides difficile. As to the kind of experiment: Antibacterial activity against Clostridium difficile ATTC43255 assessed as inhibition of vegetative cells in presence of vancomycin. Type of data set: functional, organism-based.
Data set [21] can be described thus: Binding affinity to bacterial cwID assessed as dissociation constant by MST assay. Also on record: species or system Bacteria.
A short description of data set [22]: AUC (0 to 24 hrs) in ICR mouse at 30 mg/kg, po measured for 1 to 24 hrs by UPLC analysis. The format is ADME, organism-based. The conditions noted are these: in vivo, time 1-24 hrs.
Data set [23] is described as follows: Cmax in ICR mouse at 30 mg/kg, po measured for 1 to 24 hrs by UPLC analysis. Type of data set: ADME, organism-based. The conditions noted are these: in vivo, time 1-24 hrs.
Data set [24] is described as follows: Drug concentration in liver of Golden Syrian hamster at 5 mg/kg, po bid measured after 8 hrs. Type of data set: ADME, organism-based, Mesocricetus auratus. The conditions noted are these: read-out: Ct.
In data set [25] the test system is Staphylococcus aureus. Nature of the data set: Inhibition of Staphylococcus aureus COL PBP2 at 5 ug/ml measured for 24 hrs by absorbance based assay. The conditions noted are these: dose 5.0 µg/ml.
Data set [26] deals with Clostridioides difficile. As to the kind of experiment: Post-antibiotic effect in Clostridium difficile ATTC43255 assessed as spore germination inhibition at 60 uM incubated for 1 hr followed by fresh medium replacement without compound measured up to 8 hrs. Type of data set: functional, organism-based.
In data set [27] the test system is Clostridioides difficile. Nature of the data set: Antibacterial activity against Clostridium difficile ATTC43255 assessed as inhibition of vegetative cells. Type of data set: functional, organism-based.
The nature of data set [28]: Drug concentration in feces of ICR mouse at 30 mg/kg, po measured after 8 hrs by UPLC analysis. Type of data set: ADME, organism-based. The conditions noted are these: faeces, read-out: Ct.
Data set [29] is described as follows: Drug concentration in feces of ICR mouse at 30 mg/kg, po measured after 24 hrs by UPLC analysis. Type of data set: ADME, organism-based. The conditions noted are these: in vivo.
Data set [30] can be described thus: Binding affinity to bacterial SleC assessed as dissociation constant by MST assay. Also on record: species or system Bacteria.
A short description of data set [31]: Drug uptake in blood of ICR mouse assessed as drug absorption from intestines at 30 mg/kg, po measured for 1 to 24 hrs by UPLC analysis. The conditions noted are these: in vivo, time 1-24 hrs. Type of data set: ADME, organism-based.
Data set [32] in a line: Drug concentration in kidney of Golden Syrian hamster at 5 mg/kg, po bid measured after 8 hrs. Type of data set: ADME, organism-based, Mesocricetus auratus. The conditions noted are these: read-out: Ct.
Data set [33] has as its system Clostridioides difficile. Nature of the data set: Inhibition of spore cortex degradation in Clostridium difficile assessed as greenish-blue spheres at 50 uM by Wirtz-Conklin staining based analysis. Type of data set: functional, organism-based.
Another data set deals with Eubacterium sp. Nature of the data set: Antibacterial activity against Eubacterium sp. HM-178. The format is functional.
Data set [34] is described as follows: Cmax in feces of Golden Syrian hamster at 5 mg/kg, po bid measured for 5 days. The conditions noted are these: faeces, time 5 day. The format is ADME, organism-based, Mesocricetus auratus.
Data set [35] can be described thus: Terminal half life in ICR mouse at 30 mg/kg, po measured for 1 to 24 hrs by UPLC analysis. Type of data set: ADME, organism-based. The conditions noted are these: in vivo, time 1-24 hrs, read-out: beta t1/2 (converted).

In brackets after ≈: the same amount, converted by molar mass. Activity calls are given as the source filed them. The calls are words filed in the database; no cut-off is given here. Bounds are passed on as bounds.

Consider `CN[C@H](CC(C)C)C(=O)N[C@H]1C(=O)N[C@@H](CC(N)=O)C(=O)N[C@H]2C(=O)N[C@H]3C(=O)N[C@H](C(=O)N[C@H](C(=O)O)c4cc(O)cc(O)c4-c4cc3ccc4O)[C@H](O)c3ccc(c(Cl)c3)Oc3cc2cc(c3O[C@@H]2O[C@H](CO)[C@@H](O)[C@H](O)[C@H]2O[C@H]2C[C@](C)(N)[C@H](O)[C@H](C)O2)Oc2ccc(cc2Cl)[C@H]1O` [VANCOMYCIN], for which the MIC in the data set with Enterococcus faecalis is 2 µg/mL (≈ 1.38 µM); with Acinetobacter baumannii, over 128 µg/mL; with Clostridioides difficile [1], 0.5 µg/mL (≈ 0.345 µM); against Klebsiella aerogenes, over 128 µg/mL; with Fusobacterium nucleatum, 0.25 µg/mL (≈ 0.173 µM); in the data set with Staphylococcus aureus [2], 64 µg/mL (≈ 44.2 µM). Also, the MIC with Bacteroides fragilis is 16 µg/mL (≈ 11 µM); against Pseudomonas aeruginosa, over 128 µg/mL; against Enterococcus faecium, over 16 µg/mL; against Klebsiella pneumoniae it was over 128 µg/mL; against Escherichia coli, over 128 µg/mL; in data set [3] it was over 32 µg/mL. For the same molecule, the MIC against Bifidobacterium longum is 0.25 µg/mL (≈ 0.173 µM); in the data set on Clostridioides difficile [4] it was 0.25 µg/mL (≈ 0.173 µM); in the data set on Veillonella, over 32 µg/mL.
Take `CC(C)Oc1ccc(-c2nc(-c3cccc4c3CC[C@@H]4NCCO)no2)cc1C#N.Cl` [OZANIMOD HYDROCHLORIDE]: the selectivity ratio in data set [5] is 3. In data set [6], the CC50 at 24 h stood at 46 µg/mL. For the same molecule, the IC50 in the data set with Clostridioides difficile [7] was found to be 39 µM. Further, the inhibition at 45 µM with Clostridioides difficile [8] turned out to be 62%. In the data set with Clostridioides difficile [9], this molecule returned an MIC of 64 µg/mL.
In the case of `Cl.NCc1ccc(-c2nc(-c3ccnc(Oc4ccc(C(F)(F)F)cc4)c3)no2)cc1`, the outcome with Bacteria [10], in the data set on Bacteria [11], in the data set with Bacteria [16] and in the data set with Bacteria [17] was inactive. For the same molecule, the MIC with Enterococcus faecalis is 4 µg/mL; in [12], 8 µg/mL; with Acinetobacter baumannii, over 128 µg/mL; in the data set on Klebsiella aerogenes, over 128 µg/mL; with Bacteroides fragilis it was 32 µg/mL; in the data set with Pseudomonas aeruginosa, over 128 µg/mL. Besides, the MIC is over 128 µg/mL against Klebsiella pneumoniae; over 128 µg/mL with Escherichia coli; 32 µg/mL in data set [3]; 16 µg/mL with Eubacterium sp.; 16 µg/mL in the data set on Clostridioides difficile [4]; over 128 µg/mL against Veillonella. For the same molecule, the inhibition entry with Bacillus subtilis, in the data set with Staphylococcus aureus [18], with Staphylococcus aureus [25], in the data set on Clostridioides difficile [26] and in the data set on Clostridioides difficile [33] was “Active” in each case. Further, the concentration at 8 h in data set [13] is 15000 ng/g; in [24], 5600 ng/g; in data set [28] it was 11000 ng/g; in [32], 56000 ng/g. Also, the CC50 at 24 h in [6] was 51 µg/mL. The IC50 with Clostridioides difficile [14] is 13 µM; in the data set with Clostridioides difficile [20], 22.7 µM; with Clostridioides difficile [27] it was 46.2 µM; with Clostridioides difficile [7], 14 µM. In addition, the Kd amounted to 8 µM in [15], 16 µM in data set [19], 54 µM in data set [21] and 12 µM in [30]. In data set [22], this molecule had an AUC(0-t) of 17000 ng·h/mL. Also, the Cmax was 1440 ng/mL in [23] and about 4000 ng/g in [34]. In data set [29], the Ct result is “Below_limit_of_detection”. The Drug uptake result in data set [31] was “Active”. In addition, the inhibition result in the data set with Clostridioides difficile [7] is “Dose-dependent-effect”. In data set [35], the half-life was 6.3 h. In addition, in the data set on Clostridioides difficile [8], the inhibition at 45 µM worked out at 84%.
